Ki data for 23 compounds are collected here from patent publication US9062078B2, “Substituted 7-azabicyles and their use as orexin receptor modulators” (priority 2013, dated 2015).

Like-named read-outs stand apart in the source and are kept apart here.

One assay addresses human orexin 2 receptor (Homo sapiens (Human), UniProt O43614). Description: Human orexin 2 receptor radioligand binding (competitive, [3H]-EMPA, HEK293 cell preparations).
The next assay concerns the target human orexin 1 receptor (Homo sapiens (Human), UniProt O43613). Description: Human orexin 1 receptor radioligand binding (competitive, [3H]-SB674042, CHO cell preparations).
The target of the next assay is rat orexin 1 receptor (Rattus norvegicus, UniProt P56718). Description: Rat orexin 1 receptor radioligand binding (competitive, [3H]-SB674042, HEK293 cell preparations).
The mark [1] stands for this setting: human orexin 2 receptor, [3H]-EMPA competition binding, read-out: hOX2 Ki (nm).
The mark [2] stands for this setting: human orexin 1 receptor, [3H]-SB674042 competition binding, read-out: hOX1 Ki (nm).
Where [3] appears, read: rat orexin 1 receptor, [3H]-SB674042 competition binding, read-out: rOX1 Ki (nm).

Chain of human orexin 1 receptor (O43613 whole entry): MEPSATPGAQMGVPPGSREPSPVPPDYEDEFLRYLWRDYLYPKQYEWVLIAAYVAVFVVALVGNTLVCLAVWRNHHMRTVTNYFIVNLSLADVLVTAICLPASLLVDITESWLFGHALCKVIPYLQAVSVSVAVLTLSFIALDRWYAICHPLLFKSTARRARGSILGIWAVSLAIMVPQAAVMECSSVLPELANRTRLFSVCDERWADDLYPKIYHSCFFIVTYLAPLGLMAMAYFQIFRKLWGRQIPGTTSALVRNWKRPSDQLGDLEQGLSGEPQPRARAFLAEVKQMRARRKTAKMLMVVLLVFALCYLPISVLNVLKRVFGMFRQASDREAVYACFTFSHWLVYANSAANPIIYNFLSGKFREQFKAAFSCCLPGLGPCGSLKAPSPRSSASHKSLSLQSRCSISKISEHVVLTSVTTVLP
Chain of human orexin 2 receptor (O43614 whole entry): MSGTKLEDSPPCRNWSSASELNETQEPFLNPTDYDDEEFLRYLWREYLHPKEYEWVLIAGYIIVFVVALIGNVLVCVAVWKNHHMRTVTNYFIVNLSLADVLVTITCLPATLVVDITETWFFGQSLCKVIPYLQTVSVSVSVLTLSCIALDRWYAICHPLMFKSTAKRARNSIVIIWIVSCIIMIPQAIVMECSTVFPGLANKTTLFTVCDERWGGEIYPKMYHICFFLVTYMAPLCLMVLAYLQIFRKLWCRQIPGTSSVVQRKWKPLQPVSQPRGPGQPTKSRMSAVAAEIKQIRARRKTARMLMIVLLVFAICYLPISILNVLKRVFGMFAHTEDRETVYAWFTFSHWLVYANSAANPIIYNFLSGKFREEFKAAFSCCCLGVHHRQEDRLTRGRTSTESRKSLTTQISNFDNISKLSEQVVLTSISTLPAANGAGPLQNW

Usually Ki stands for a measure of affinity in units of concentration, obtained from inhibition or displacement. With `CCOc1ccnc(OCC)c1C(=O)N1C2CCC1C(COc1ccccn1)C2` (racemic) [Example 163, (±)-(2,4-diethoxypyridin-3-yl)(2-((pyridin-2-yloxy)methyl)-7-azabicyclo[2.2.1]heptan-7-yl)methanone], the Ki at human orexin 2 receptor (setting [1]) came to 150 nM; at human orexin 1 receptor (setting [2]) it was 153 nM; at rat orexin 1 receptor (setting [3]), 150 nM.

As for `Cc1ccc(-c2nc(C)no2)c(C(=O)N2C3CCC2C(COc2ccc(F)cn2)C3)n1` (racemic) [Example 66, (±)-(2-(((5-fluoropyridin-2-yl)oxy)methyl)-7-azabicyclo[2.2.1]heptan-7-yl)(6-methyl-3-(3-methyl-1,2,4-oxadiazol-5-yl)pyridin-2-yl)methanone], the Ki at human orexin 2 receptor (setting [1]) is 620 nM; at human orexin 1 receptor (setting [2]), 293 nM; at rat orexin 1 receptor (setting [3]), 197 nM.

As to `Cc1ccc(-c2ncccn2)c(C(=O)N2C3CCC2C(Nc2cnc4ccccc4n2)C3)n1` (racemic) [Example 208, (±)-(6-methyl-3-(pyrimidin-2-yl)pyridin-2-yl)(2-(quinoxalin-2-ylamino)-7-azabicyclo[2.2.1]heptan-7-yl)methanone], the Ki at human orexin 2 receptor (setting [1]) was 90 nM; on human orexin 1 receptor (hOX1 Ki (nm)), 30 nM; at rat orexin 1 receptor (rOX1 Ki (nm)), 26 nM.

For `COc1ccc(-n2nccn2)c(C(=O)N2[C@@H]3CC[C@H]2[C@H](Nc2cnc(C(F)(F)F)cn2)C3)c1` [Example 255, (5-methoxy-2-(2H-1,2,3-triazol-2-yl)phenyl)((1S,2R,4R)-2-((5-(trifluoromethyl)pyrazin-2-yl)amino)-7-azabicyclo[2.2.1]heptan-7-yl)methanone], the Ki on human orexin 2 receptor (setting [1]) turned out to be 265 nM; on human orexin 1 receptor (read-out: hOX1 Ki (nm)) it was 29 nM; at rat orexin 1 receptor (read-out: rOX1 Ki (nm)) it was 32 nM.

`O=C(c1cccc(F)c1-c1ncccn1)N1C2CCC1C(Nc1ccc(C(F)(F)F)cn1)C2` (racemic) [Example 192, (±)-(3-fluoro-2-(pyrimidin-2-yl)phenyl)(2-((5-(trifluoromethyl)pyridin-2-yl)amino)-7-azabicyclo[2.2.1]heptan-7-yl)methanone]: the Ki on human orexin 2 receptor (hOX2 Ki (nm)) turned out to be 1500 nM; at human orexin 1 receptor (hOX1 Ki (nm)), 52 nM; on rat orexin 1 receptor (rOX1 Ki (nm)), 60 nM.

Take `O=C(c1cccc(F)c1-n1nccn1)N1[C@@H]2CC[C@H]1[C@H](Nc1ncc(C(F)(F)F)cn1)C2` [Example 269, (3-fluoro-2-(2H-1,2,3-triazol-2-yl)phenyl)((1S,2R,4R)-2-((5-(trifluoromethyl)pyrimidin-2-yl)amino)-7-azabicyclo[2.2.1]heptan-7-yl)methanone]: the Ki was found to be 1700 nM on human orexin 2 receptor (setting [1]), 111 nM on human orexin 1 receptor (setting [2]) and 48 nM on rat orexin 1 receptor (read-out: rOX1 Ki (nm)).

In the case of `O=C(c1cccc(F)c1-c1cccnn1)N1[C@@H]2CC[C@H]1[C@H](Nc1cnc(C(F)(F)F)cn1)C2` [Example 262, (3-fluoro-2-(pyridazin-3-yl)phenyl)((1S,2R,4R)-2-((5-(trifluoromethyl)pyrazin-2-yl)amino)-7-azabicyclo[2.2.1]heptan-7-yl)methanone], the results for the Ki on human orexin 2 receptor (setting [1]), on human orexin 1 receptor (setting [2]) and at rat orexin 1 receptor (setting [3]) were 4200 nM, 175 nM and 106 nM, respectively.

For the compound `Cc1ccc(-c2ncccn2)c(C(=O)N2C3CCC2C(Nc2ccc(Br)cn2)C3)n1` (racemic) [Example 217, (±)-(2-((5-bromopyridin-2-yl)amino)-7-azabicyclo[2.2.1]heptan-7-yl)(6-methyl-3-(pyrimidin-2-yl)pyridin-2-yl)methanone], the Ki came out at 770 nM at human orexin 2 receptor (setting [1]), 40 nM on human orexin 1 receptor (hOX1 Ki (nm)) and 59 nM on rat orexin 1 receptor (rOX1 Ki (nm)).

In the case of `Cc1ccc(-n2nccn2)c(C(=O)N2C3CCC2C(Nc2cnc(C(F)(F)F)cn2)C3)n1` (racemic) [Example 186, (±)-(6-methyl-3-(2H-1,2,3-triazol-2-yl)pyridin-2-yl)(2-(5-(trifluoromethyl)pyrazin-2-yl)amino)-7-azabicyclo[2.2.1]heptan-7-yl)methanone], the Ki on human orexin 2 receptor (hOX2 Ki (nm)) came to 1200 nM; at human orexin 1 receptor (hOX1 Ki (nm)), 164 nM; at rat orexin 1 receptor (rOX1 Ki (nm)), 134 nM.

Regarding `O=C(c1cccc(F)c1-c1ncccn1)N1[C@@H]2CC[C@H]1[C@H](Nc1cnc(C(F)(F)F)cn1)C2` [Example 238, (3-fluoro-2-(pyrimidin-2-yl)phenyl)((1S,2R,4R)-2-((5-(trifluoromethyl)pyrazin-2-yl)amino)-7-azabicyclo[2.2.1]heptan-7-yl)methanone], the Ki was 955 nM at human orexin 2 receptor (read-out: hOX2 Ki (nm)), 16 nM at human orexin 1 receptor (read-out: hOX1 Ki (nm)) and 16 nM on rat orexin 1 receptor (read-out: rOX1 Ki (nm)).

Turning to `Cc1ccc(-n2nccn2)c(C(=O)N2C3CCC2C(COc2ncccc2C)C3)n1` (racemic) [Example 176, (±)-(6-methyl-3-(2H-1,2,3-triazol-2-yl)pyridin-2-yl)(2-(((3-methylpyridin-2-yl)oxy)methyl)-7-azabicyclo[2.2.1]heptan-7-yl)methanone], the Ki was 202 nM at human orexin 2 receptor (setting [1]), 150 nM on human orexin 1 receptor (read-out: hOX1 Ki (nm)) and 119 nM at rat orexin 1 receptor (read-out: rOX1 Ki (nm)).

As for `O=C(c1cccc(F)c1-c1ncccn1)N1[C@@H]2CC[C@H]1[C@H](Nc1ncc(C(F)(F)F)cn1)C2` [Example 271, (3-fluoro-2-(pyrimidin-2-yl)phenyl)((1S,2R,4R)-2-((5-(trifluoromethyl)pyrimidin-2-yl)amino)-7-azabicyclo[2.2.1]heptan-7-yl)methanone], the results for the Ki on human orexin 2 receptor (setting [1]), at human orexin 1 receptor (read-out: hOX1 Ki (nm)) and on rat orexin 1 receptor (read-out: rOX1 Ki (nm)) were 2300 nM, 42 nM and 41 nM, respectively.

Consider `O=C(c1ccc(OC(F)F)cc1-n1nccn1)N1[C@@H]2CC[C@H]1[C@H](Nc1cnc(C(F)(F)F)cn1)C2` [Example 253, (4-(difluoromethoxy)-2-(2H-1,2,3-triazol-2-yl)phenyl)((1S,2R,4R)-2-((5-(trifluoromethyl)pyrazin-2-yl)amino)-7-azabicyclo[2.2.1]heptan-7-yl)methanone], for which the Ki at human orexin 2 receptor (setting [1]) stood at 9600 nM; on human orexin 1 receptor (setting [2]) it was 152 nM; at rat orexin 1 receptor (setting [3]), 155 nM.

For the compound `Cc1ccc(-n2cccn2)c(C(=O)N2C3CCC2C(COc2ccc(F)cn2)C3)n1` (racemic) [Example 70, (±)-(2-(((5-fluoropyridin-2-yl)oxy)methyl)-7-azabicyclo[2.2.1]heptan-7-yl)(6-methyl-3-(1H-pyrazol-1-yl)pyridin-2-yl)methanone], the Ki was 624 nM on human orexin 2 receptor (setting [1]), 62 nM on human orexin 1 receptor (setting [2]) and 88 nM at rat orexin 1 receptor (setting [3]).

Regarding `O=C(c1ccc(F)cc1-n1nccn1)N1C2CCC1C(COc1ccc(F)cn1)C2` (racemic) [Example 116, (±)-(4-fluoro-2-(2H-1,2,3-triazol-2-yl)phenyl)(2-(((5-fluoropyridin-2-yl)oxy)methyl)-7-azabicyclo[2.2.1]heptan-7-yl)methanone], the Ki at human orexin 2 receptor (setting [1]) was found to be 315 nM; at human orexin 1 receptor (setting [2]) it was 250 nM; at rat orexin 1 receptor (setting [3]) it was 142 nM.

For `O=C(c1ccccc1-n1nccn1)N1C2CCC1C(Nc1ccc(Cl)cn1)C2` (racemic) [Example 211, (±)-(2-(2H-1,2,3-triazol-2-yl)phenyl)(2-(((5-chloropyridin-2-yl)amino)-7-azabicyclo[2.2.1]heptan-7-yl)methanone], the Ki at human orexin 2 receptor (setting [1]) turned out to be 1800 nM; at human orexin 1 receptor (hOX1 Ki (nm)), 55 nM; at rat orexin 1 receptor (rOX1 Ki (nm)) it was 110 nM.

`Cc1cccc(C(=O)N2[C@@H]3CC[C@H]2[C@H](Nc2cnc(C(F)(F)F)cn2)C3)c1-n1nccn1` [Example 245, (3-methyl-2-(2H-1,2,3-triazol-2-yl)phenyl)((1S,2R,4R)-2-((5-(trifluoromethyl)pyrazin-2-yl)amino)-7-azabicyclo[2.2.1]heptan-7-yl)methanone]: the Ki at human orexin 2 receptor (setting [1]) amounted to 288 nM; at human orexin 1 receptor (read-out: hOX1 Ki (nm)), 7 nM; on rat orexin 1 receptor (read-out: rOX1 Ki (nm)), 10 nM.

On to `O=C(c1cc(Cl)ccc1-n1nccn1)N1C2CCC1C(COc1ccc(F)cn1)C2` (racemic) [Example 120, (±)-(5-chloro-2-(2H-1,2,3-triazol-2-yl)phenyl)(2-(((5-fluoropyridin-2-yl)oxy)methyl)-7-azabicyclo[2.2.1]heptan-7-yl)methanone], for which the Ki on human orexin 2 receptor (setting [1]) turned out to be 124 nM; on human orexin 1 receptor (setting [2]), 14 nM; on rat orexin 1 receptor (setting [3]) it was 15 nM.

As to `Cc1ccc(-n2nccn2)c(C(=O)N2C3CCC2C(COc2ccc(Br)cn2)C3)n1` (racemic) [Example 49, (±)-(2-(((5-bromopyridin-2-yl)oxy)methyl)-7-azabicyclo[2.2.1]heptan-7-yl)(6-methyl-3-(2H-1,2,3-triazol-2-yl)pyridin-2-yl)methanone], the Ki at human orexin 2 receptor (setting [1]) worked out at 192 nM; on human orexin 1 receptor (hOX1 Ki (nm)) it was 69 nM; on rat orexin 1 receptor (rOX1 Ki (nm)) it was 81 nM.

In the case of `Cc1ccc(-c2ncco2)c(C(=O)N2C3CCC2C(COc2ccccn2)C3)n1` (racemic) [Example 93, (±)-(6-methyl-3-(oxazol-2-yl)pyridin-2-yl)(2-((pyridin-2-yloxy)methyl)-7-azabicyclo[2.2.1]heptan-7-yl)methanone], the Ki is 836 nM at human orexin 2 receptor (hOX2 Ki (nm)), 73 nM on human orexin 1 receptor (setting [2]) and 40 nM at rat orexin 1 receptor (setting [3]).

For `Cc1ccc(-c2ncccn2)c(C(=O)N2C3CCC2C(COc2ccc(F)cn2)C3)n1` (racemic) [Example 64, (±)-(2-(((5-fluoropyridin-2-yl)oxy)methyl)-7-azabicyclo[2.2.1]heptan-7-yl)(6-methyl-3-(pyrimidin-2-yl)pyridin-2-yl)methanone], the Ki on human orexin 2 receptor (setting [1]) amounted to 81 nM; on human orexin 1 receptor (setting [2]) it was 24 nM; at rat orexin 1 receptor (setting [3]), 18 nM.

In the case of `Cc1ccc(-c2ncccn2)c(C(=O)N2C3CCC2C(COc2ccccn2)C3)n1` (racemic) [Example 2, (±)-(6-methyl-3-(pyrimidin-2-yl)pyridin-2-yl)(2-((pyridin-2-yloxy)methyl)-7-azabicyclo[2.2.1]heptan-7-yl)methanone], the Ki at human orexin 2 receptor (hOX2 Ki (nm)) came to 500 nM; at human orexin 1 receptor (hOX1 Ki (nm)), 23 nM; at rat orexin 1 receptor (rOX1 Ki (nm)), 31 nM.

For the compound `Cc1nc(C(=O)N2C3CCC2C(COc2ccccn2)C3)c(-c2ccccc2)s1` (racemic) [Example 92, (±)-(2-methyl-5-phenylthiazol-4-yl)(2-((pyridin-2-yloxy)methyl)-7-azabicyclo[2.2.1]heptan-7-yl)methanone], the Ki stood at 218 nM on human orexin 2 receptor (setting [1]), 11 nM on human orexin 1 receptor (hOX1 Ki (nm)) and 20 nM at rat orexin 1 receptor (rOX1 Ki (nm)).
